Measured values reported in PMC4512978, “Synthesis and evaluation in rats of homologous series of [^18F]-labeled dopamine D2/3 receptor agonists based on the 2-aminomethylchroman scaffold as potential PET tracers” (EJNMMI Research, 2015).
Several values for one entry are separate records, joined by “and”; a condition that tells them apart may be missing. Equal values may be shown once.

Columns and labels:
[1] = LogD measurement (n-octanol/phosphate buffer); assay type: physicochemical; settings: n-octanol / 1 M phosphate buffer pH 7.4
Description: LogD of the tracers was measured using the radioactivity remaining on the HLB SPE cartridges after their elution with ethanol during the tracer formulation procedure (see above). The cartridge was dried with nitrogen for 5 min and eluted with at least 1.5 mL n-octanol. A 500 μL portion of octanol eluate was mixed with 500 μL of 1 M phosphate buffer (pH 7.4) and vigorously vortexed for 5 min. The mixture was then centrifuged at 17,000g for 10 min and 3 × 100 μL aliquots of organic and aqueous phase were loaded into a gamma-counter for radioactivity measurement. To correct for possible presence of radioactive impurities in the tracer, aliquots of organic and aqueous phases were later analyzed by radio-TLC, and the counts obtained from the gamma-counter were corrected according to the percentage of impurities found in aqueous and organic phases. LogD was calculated with the following formula: LogD=lgCPMorg×Xorgtracer/CPMaq×Xaqtracer,
where CPMorg is the mean radioactivity of the organic aliquots, Xorgtracer is the mean percentage of radioactivity accounting for intact tracer in organic aliquots (as determined from radio-TLC), and CPMaq and Xaqtracer are the corresponding values for the aqueous phase.
For each tracer batch used for logD determination, the experiment was performed in duplicate. LogD values are means calculated from at least two independent experiments.

D2/3R = assay: MicroPET study in rats; assay type: in vivo, Sprague-Dawley rats; settings: for blood-brain barrier penetration: PET in rats; for Brain uptake, peak: 3 min after radiotracer injection, control rats; for Striatum-to-cerebellum uptake ratio (PET): saline pre-treated rats, peak (45 min post-injection for [^18F]FEt-AMC13 and [^11C]raclopride)
Description: Animal experiments were performed by licensed investigators in compliance with the Law on Animal Experiments of The Netherlands. The protocol was approved by the Committee on Animal Ethics of the University of Groningen. Young male (10–12 weeks of age, 300–350 g body weight) Sprague-Dawley rats (Harlan, the Netherlands) were used for all experiments. The rats were maintained at a 12-h light/12-h dark regime and were fed standard laboratory chow ad libitum.
Distribution of the radiotracers was studied in rats pre-treated, at random, with physiological saline (controls) or raclopride tartrate (1 mg/kg calculated per raclopride base, equivalent to 2.9 μmol/kg). Saline and raclopride were administered intravenously (1 mL/kg injected volume).
An additional group of saline pre-treated rats, injected with [^11C]raclopride, served as positive controls for D2/3R-specific brain uptake.
Two rats were scanned simultaneously. Before all manipulations, animals were anesthetized with a mixture of isoflurane/air (inhalation anesthesia, 5 % ratio during induction, 2 % at maintenance). Cannulae were placed into the rats’ left femoral arteries and veins; the operation took 45–50 min. The rats were positioned supine inside the camera (Focus 220 microPET, Siemens-Concorde), one above the other with their heads in the camera’s field of view. A 515-s transmission scan with a Co-57 point source was performed. Tracer was injected through the venous cannula as a slow bolus (1 mL volume, 60 s long) using an infusion pump. The second (upper) animal was injected 16 min after the first (lower).
PET acquisition was started during the injection of radioactivity in the first rat. A 106-min long (76 min long in the case of [^11C]raclopride) list-mode acquisition protocol was used for the scan.
List-mode data from the 106-min-long and 76-min-long scans were reframed into, respectively, 90-min-long and 60-min-long dynamic sequences of 6 × 10, 4 × 30, 2 × 60, 1 × 120, 1 × 180, 4 × 300, 3 × 600, and (for 90-min-long scans) 2 × 900 s frames. The data were reconstructed per time frame using an iterative reconstruction algorithm (attenuation-weighted 2-dimensional ordered-subset expectation maximization, provided by Siemens; 4 iterations, 16 subsets; zoom factor 2). Datasets were fully corrected for random coincidences, scatter, and attenuation. Data from the transmission scan were used for attenuation correction. The final datasets consisted of 95 slices, with a slice thickness of 0.8 mm and an in-plane image matrix size of 128 × 128 and pixel size of 0.47 × 0.47 mm.
Reconstructed images were analyzed with Inveon 2.0 software (Siemens Medical Solutions, USA, Inc). Regions of interest (ROIs) were drawn manually on a T2-weighted MRI template of rat brain around the striatum, brainstem, cortex, hippocampus, hypothalamus, thalamus, olfactory bulbs, and cerebellum around the whole brain and around the pituitary gland. The MRI template was co-registered with the PET scan by image fusion. The time-activity curves (TAC) per ROI were determined in Bq/cm^3 units and converted into standardized uptake values (SUVs).
Degree of D2/3R-specific binding of the tracers was characterized by BPND (as given above) or the specific binding ratio (SBR) given as target region activity/cerebellar activity - 1. Both were calculated under control conditions and in response to the raclopride challenge.

| logD [1] | Brain uptake, peak (D2/3R; PET) [% ID] | Brain uptake (D2/3R; PET, 60 min post-injection) [% ID] | Compound | decrease in D2/3R-specific binding in the striatum in vivo (D2/3R; 1 mg/kg (2.9 μmol/kg) raclopride, range over estimates) | decrease of peak PET-based striatal SBR (D2/3R; 1 mg/kg raclopride, p = 0.25) [%] | blood-brain barrier penetration (D2/3R) | D2/3R occupancy by the tracer itself (crude estimation) (D2/3R; approach of Skinbjerg et al., all experiments) | peak PET-based striatal SBR (D2/3R; pre-treatment with 1 mg/kg (2.9 μmol/kg) raclopride) | peak PET-based striatal SBR (D2/3R; saline pre-treated) | Striatum-to-cerebellum uptake ratio (PET) (D2/3R) | effect of raclopride pre-treatment on radioactivity distribution in the brain (D2/3R; 1 mg/kg raclopride) |
| --- | --- | --- | --- | --- | --- | --- | --- | --- | --- | --- | --- |
| 1.67 ± 0.07 | 0.7 |  | Oc1ccc2c(c1)O[C@@H](CNCc1ccc(OCC[18F])cc1)CC2 [[^18F]FEt-AMC13] | 17–39% | 17 | good blood-brain barrier (BBB) penetration | no more than 3% | 0.90 ± 0.11 | 1.08 ± 0.25 | 2.08 and 2.1 and 2.08 ± 0.25 |  |
| 1.48 ± 0.002 | 0.2 | 0.04 | Oc1ccc2c(c1)O[C@@H](CNCCN1CCN(c3ccc(OCC[18F])cc3)CC1)CC2 [[^18F]FEt-AMC15, (R) 1-(4-(2-[^18F]fluoroethoxy)phenyl)-4-(4-(7-hydroxychroman-2-yl)-3-azabutyl)-piperazine] |  |  | essentially did not penetrate the BBB |  |  |  |  | no detectable alterations of radioactivity distribution in the brain |

| Compound | logD [1] | Brain uptake, peak (D2/3R; PET) [% ID] | Brain uptake (D2/3R; PET, 60 min post-injection) [% ID] | decrease in D2/3R-specific binding in the striatum in vivo (D2/3R; 1 mg/kg (2.9 μmol/kg) raclopride, range over estimates) | decrease of peak PET-based striatal SBR (D2/3R; 1 mg/kg raclopride, p = 0.25) [%] | blood-brain barrier penetration (D2/3R) | D2/3R occupancy by the tracer itself (crude estimation) (D2/3R; approach of Skinbjerg et al., all experiments) | peak PET-based striatal SBR (D2/3R; pre-treatment with 1 mg/kg (2.9 μmol/kg) raclopride) | peak PET-based striatal SBR (D2/3R; saline pre-treated) | Striatum-to-cerebellum uptake ratio (PET) (D2/3R) | effect of raclopride pre-treatment on radioactivity distribution in the brain (D2/3R; 1 mg/kg raclopride) |
| --- | --- | --- | --- | --- | --- | --- | --- | --- | --- | --- | --- |
| Oc1ccc2c(c1)O[C@@H](CNCc1ccc(OCCCC[18F])cc1)CC2 [[^18F]FBu-AMC13, (R)-2-[(4-(4-[^18F]fluorobutoxy)benzylamino)methyl]chroman-7-ol] | 2.5 ± 0.06 | 0.9 |  |  |  | good blood-brain barrier (BBB) penetration |  |  |  | 1.41 ± 0.08 |  |
